Here are results for 23 compounds from US11155546B2, “4,6,7-trisubstituted 1,2-dihydropyrrolo[3,4-c]pyridin/pyrimidin-3-one derivatives and uses thereof” (SHANGHAI HAIYAN PHARMACEUTICAL TECHNOLOGY CO., LTD., priority 2017, dated 2021).

For data set [1], the target named is BTK WT (Homo sapiens (Human), UniProt Q06187). As to the kind of experiment: Lantha screening kinase reaction, inhibition of BTK WT. The data set is classed as biochemical. On the procedure:
The compound was predissolved in 100% DMSO. 10 mM drug stock solution was obtained by dissolution at room temperature and then serially diluted with 8 vol % DMSO solution to a final concentration of 10-0.005 μM. […] Among the wells, the kinase in the blank well was replaced with a reaction buffer and the kinase well (Enzyme) was not added with any drug. After shaking at 25° C. for 60 minutes in the dark, 10 μl of Detection Solution (mixture of Invitrogen PV3528 and EDTA, which was diluted with TR-FRET dilution buffer, the working concentration of EDTA was 5 mM, the working concentration of Lanthascreening Tb PY20 antibody was 0.2 nM) was added and shaken at room temperature for 30 minutes. The plates were read on a VictorX5 fluorescent plate reader (PerkinElmer) and the light absorption at an excitation wavelength of 340 nm and emission wavelengths of 500 nm and 520 nm was measured.
The calculation method for the inhibition ratio (referring to the specification of Invitrogen, PV3363) was as follows: Emission ratio (ER):Coumarin Emission (520 nm)/Fluorescein Emission (500 nm) 1. The inhibition ratio (IR):(ERkinase−ERtest compound)/(ERkinase−ERblank)×100%. 2.
The half-inhibitory concentration IC50 was calculated by fitting with XLFIT5.0 software (IDBS, UK).

Data set [2] addresses βBTK Y223 (Homo sapiens (Human), UniProt Q06187). The data set can be described thus: Intracellular βBTK Y223 phosphorylation HTRF in Ramos cells. In kind it is cell-based. The protocol:
The compound was predissolved in 100% DMSO. […] 20 μl of lysate (4× lysate: blocked mother liquor is 25:1) was added to each well and incubated for 30 minutes at 25° C. on a shaker. It was shaken on an oscillator at 800 rpm for 1 minute. […] The half-inhibitory concentration IC50 was calculated by fitting with XLFIT 5.0 software (IDBS, UK).
On the technique in general: Time-resolved FRET reads energy transfer from a long-lived donor to a nearby acceptor.

Data set [3] addresses wild-type EGFR kinase (Homo sapiens (Human), UniProt P00533). The data set can be described thus: Wild type EGFR kinase inhibition test (z-lyte). The data set is classed as biochemical. To be noted: 10 μM ATP; read-out: EGFR WT IC50. From the text: All the following reagents used in z-lyte test are commercially available from Invitrogen.
The calculation method for the inhibition ratio (referring to the specification of Invitrogen, PV3363) was as follows: ER=Coumarin Emission(450 nm)/Fluorescein Emission(520 nm) 1. Phosphorylation ratio=(1−((ER×C3520nm−C3450nm)/((C1450nm−C3450nm)+ER×(C3520nm−C1520nm))))×100% 2. Inhibition ratio (IR)=(1−phosphorylation ratio of the test compound)/(phosphorylation ratio of C2))×100% 3.
The half-inhibitory concentration IC50 was calculated by fitting with XLFIT 5.0 software (IDBS, UK).

Data set [4] is described as follows: in vivo. The conditions noted are these: mouse, in vivo, po, 30 mg/kg. On the procedure:
Test Animals: ICR mice, weight 28-30 g, male, totally 12, purchased from SLAC Laboratory Animal Co., Ltd. Mice were fasting one night before administration and freely fed 4 hours after administration.
Administration and Blood collection: 6 mice were administered intragastrically (PO) in a administered dosage of 30 mg/kg and a administered volume of 10 mL/kg. One administration route was subjected with 6 mice, blood samples of three mice were collected at one time point, and blood samples of another three mice were collected at alternate time point alternately. Blood was collected at 8 time points of 0.083, 0.25, 0.5, 1, 2, 4, 8, 24 h after administration respectively.
Animals were manually controlled at the time of collection and approximately 80 μL of blood was collected from the mice fundus venous plexus into a tube containing K2EDTA. The collected blood sample was put on wet ice, centrifuged within 15 min (8000 rpm, 4 min at 4° C.), and then the plasma sample was taken and stored at minus 20° C. till analysis. The compounds were prepared on the day of the experiment.
Solvent excipient information: DMSO (brand: Sigma, batch number: SHBD2446V); 2-hydroxypropyl-3-cyclodextrin (brand: Sigma, batch number: BCBN8227V), acetic acid (brand: Sinopharm Group, batch number: 20150616), sodium acetate (Brand: GENERAL-REAGENT, batch number: P1246037).
Preparation of a 3 mg/mL PO dosing solution: the solvent was a solution of 5% DMSO and 95% PH4.5 (sodium acetate-acetate) in 20% of 2-hydroxypropyl-β-cyclodextrin.
Analytical method: Plasma samples were analyzed by liquid chromatography-tandem mass spectrometry (Instrument type: Triple Quad™ 4000).
Preparation of the standard curve: preparing a standard curve of the test compound 1n the plasma matrix of ICR mice with a linear range of 1.00-3000 ng/mL, and preparing control samples at low, medium and high concentrations of 3 ng/mL, 500 ng/mL, and 2400 ng/mL respectively.
Treatment of biological samples: the frozen plasma samples were thawed on ice, and after the samples were thawed, they were vortexed on a vortex for 5 min. 20 μL of plasma sample was added to a 96-well plate, and 200 μL of acetonitrile (brand: Merck, Lot: 1854029643) containing an internal standard dexamethasone (Brand: NIFDC, Lot: 1N2V-DPGY, 2000 ng/mL) was added to precipitate protein, which were vortexed for 5 min, and then centrifuged at 3700 rpm and 4° C. for 15 min. The supernatant was extracted and twice centrifuged under the same conditions, and finally 2 μL of the supernatant solution was analyzed by LC-MS/MS.

Chain of wild-type EGFR kinase (P00533 25-1210): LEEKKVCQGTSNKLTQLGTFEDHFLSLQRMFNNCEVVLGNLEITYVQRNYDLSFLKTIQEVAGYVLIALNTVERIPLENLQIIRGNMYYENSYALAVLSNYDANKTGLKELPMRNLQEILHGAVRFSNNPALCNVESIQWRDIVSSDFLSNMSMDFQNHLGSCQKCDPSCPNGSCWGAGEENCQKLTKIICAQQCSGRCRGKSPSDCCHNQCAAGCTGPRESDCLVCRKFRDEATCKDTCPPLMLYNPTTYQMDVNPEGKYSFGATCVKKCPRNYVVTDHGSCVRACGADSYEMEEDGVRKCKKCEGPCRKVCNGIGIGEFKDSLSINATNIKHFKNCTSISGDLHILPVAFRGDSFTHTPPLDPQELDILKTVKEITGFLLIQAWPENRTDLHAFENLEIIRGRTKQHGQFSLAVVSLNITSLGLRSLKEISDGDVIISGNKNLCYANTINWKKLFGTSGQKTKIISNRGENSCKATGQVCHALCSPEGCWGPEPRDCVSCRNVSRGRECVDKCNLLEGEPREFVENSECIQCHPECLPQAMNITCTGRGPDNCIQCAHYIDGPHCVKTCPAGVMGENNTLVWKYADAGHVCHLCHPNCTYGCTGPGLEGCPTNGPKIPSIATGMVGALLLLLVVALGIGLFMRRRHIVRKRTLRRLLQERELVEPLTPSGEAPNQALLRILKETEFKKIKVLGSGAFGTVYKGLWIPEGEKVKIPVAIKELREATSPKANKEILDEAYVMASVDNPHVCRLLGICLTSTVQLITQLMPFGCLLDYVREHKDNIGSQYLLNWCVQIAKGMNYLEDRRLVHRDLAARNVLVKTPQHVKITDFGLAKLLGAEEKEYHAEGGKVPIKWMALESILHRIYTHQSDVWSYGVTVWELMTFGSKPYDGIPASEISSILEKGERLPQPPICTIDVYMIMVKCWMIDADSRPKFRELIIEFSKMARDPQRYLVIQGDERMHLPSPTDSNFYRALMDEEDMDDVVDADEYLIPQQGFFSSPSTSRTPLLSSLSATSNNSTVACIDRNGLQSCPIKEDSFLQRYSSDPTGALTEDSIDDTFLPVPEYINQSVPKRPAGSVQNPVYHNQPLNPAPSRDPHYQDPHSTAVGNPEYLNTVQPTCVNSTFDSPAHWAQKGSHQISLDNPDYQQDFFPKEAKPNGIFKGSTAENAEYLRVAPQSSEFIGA
Chain of BTK WT (Q06187 whole entry): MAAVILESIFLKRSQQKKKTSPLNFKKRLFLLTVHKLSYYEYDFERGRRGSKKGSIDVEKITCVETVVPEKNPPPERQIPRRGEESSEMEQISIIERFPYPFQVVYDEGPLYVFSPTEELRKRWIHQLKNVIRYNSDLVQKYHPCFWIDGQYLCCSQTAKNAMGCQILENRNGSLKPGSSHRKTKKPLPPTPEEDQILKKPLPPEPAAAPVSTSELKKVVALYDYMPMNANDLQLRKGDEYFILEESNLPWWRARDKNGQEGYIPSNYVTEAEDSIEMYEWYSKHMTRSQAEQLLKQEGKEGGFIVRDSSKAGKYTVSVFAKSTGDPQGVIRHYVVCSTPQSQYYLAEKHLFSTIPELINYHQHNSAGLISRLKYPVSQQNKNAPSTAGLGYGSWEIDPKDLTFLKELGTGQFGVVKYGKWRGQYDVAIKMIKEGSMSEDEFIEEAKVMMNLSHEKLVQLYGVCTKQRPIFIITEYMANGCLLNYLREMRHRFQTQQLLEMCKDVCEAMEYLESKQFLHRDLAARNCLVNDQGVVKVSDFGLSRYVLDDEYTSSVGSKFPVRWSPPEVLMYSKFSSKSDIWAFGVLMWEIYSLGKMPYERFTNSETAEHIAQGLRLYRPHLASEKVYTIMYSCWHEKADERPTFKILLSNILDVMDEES
Chain of βBTK Y223 (Q06187 whole entry): as above

On to `C=CC(=O)N1CCCC(Nc2nc(Nc3ccc(OCCOC)cc3)c3c(c2F)CNC3=O)C1` (stereo not shown) [Compound G-2, 6-(1-acryloylpiperidin-3-ylamino)-7-fluoro-4-(4-(2-methoxyethoxy)phenylamino)-1H-pyrrolo[3,4-c]pyridine-3 (2H)-one], for which the concentration for half-maximal inhibition (IC50) in data set [1] was found to be 3 nM; in data set [2], 5 nM; in data set [3], 1.62 µM.
For the compound `C=CC(=O)N1CCCCC(Nc2nc(Nc3ccc(OCCOC)cc3)c3c(c2F)CNC3=O)C1` (stereo not shown) [Compound G-3, 6-(1-acryloylazacycloheptane-3-ylamino)-7-fluoro-4-(4-(2-methoxyethoxy)phenylamino)-1H-pyrrolo[3,4-c]pyridine-3 (2H)-one], the results for the IC50 in data set [1], in data set [2] and in data set [3] were 2 nM, 11 nM and 2.29 µM, respectively.
Taken in the same sequence, the figures for `C=CC(=O)N1CCCC(Nc2nc(Nc3ccc(OCCOC)cc3)c3c(c2F)CNC3=O)CC1` (stereo not shown) [Compound G-4] were 7 nM, 23 nM and 2.37 µM.
The corresponding values for `C=CC(=O)N1CC(Nc2nc(Nc3ccc(OCCOC)cc3)c3c(c2F)CNC3=O)C1` [Compound G-5] are 48 nM, 59 nM and 1.91 µM.
On to `C=CC(=O)N1CCC(Nc2nc(Nc3ccc(OCCOC)cc3)c3c(c2F)CNC3=O)CC1` [Compound G-6], for which the IC50 in data set [2] was found to be 29 nM.
Take `C=CC(=O)N1CCCC(Nc2nc(Nc3cnn(C4CCOCC4)c3)c3c(c2F)CNC3=O)C1` (stereo not shown) [Compound G-10]: the IC50 in data set [1] stood at 3 nM; in data set [2], 7 nM; in data set [3] it was 1.74 µM.
As to `C=CC(=O)N1CCCC(Nc2nc(Nc3ccc(N4CCN(C)CC4)cc3)c3c(c2F)CNC3=O)C1` (stereo not shown) [Compound G-11], the IC50 in data set [1] was 1 nM; in data set [2], 2 nM; in data set [3] it was 4.25 µM.
With `C=CC(=O)N1CCCC(Nc2nc(Nc3ccc(N4CCN(C)CC4)cn3)c3c(c2F)CNC3=O)C1` (stereo not shown) [Compound G-12], the results for the IC50 in data set [1], in data set [2] and in data set [3] were 21 nM, 80 nM and 3.85 µM, respectively.
`C=CC(=O)N1CCCC(Nc2nc(Nc3cc(C)ns3)c3c(c2F)CNC3=O)C1` (stereo not shown) [Compound G-23]: in data set [1], half-maximal inhibition (IC50) required 5 nM. In data set [3], the IC50 is 1.79 µM. In data set [4], the “Area under curve AUC” value is 645 ng·h/mL, the “Maximum blood concentration Cmax” value is on record as 878.7 ng/mL, the “Oral relative bioavailability F (%)” value was found to be 14% and the “Tmax” value is 4.8 min. Further, the “half-time T1/2” value in data set [4] was determined as 3.25 h.
The compound `C=CC(=O)N1CCCC(Nc2nc(Nc3ccc(N4CCOCC4C)cc3)c3c(c2F)CNC3=O)C1` (stereo not shown) [Compound G-32] gave an IC50 in data set [1] of 5 nM. For the same compound, the IC50 in data set [3] was determined as 5.34 µM. Besides, in data set [4], the “Area under curve AUC” value is 1463 ng·h/mL, the “Maximum blood concentration Cmax” value was 837.7 ng/mL, the “Oral relative bioavailability F (%)” value is on record as 14.7% and the “Tmax” value stood at 30 min. In addition, the “half-time T1/2” value in data set [4] stood at 1.21 h.
`C=CC(=O)N1CCCC(Nc2nc(Nc3ccc(N4CCOCC4)c(F)c3)c3c(c2F)CNC3=O)C1` (stereo not shown) [Compound G-33] yielded an IC50 in data set [1] of 5 nM. In addition, in data set [3], the IC50 was 7.17 µM. In data set [4], the “Area under curve AUC” value was determined as 1193 ng·h/mL, the “Maximum blood concentration Cmax” value turned out to be 964.0 ng/mL, the “Oral relative bioavailability F (%)” value is listed as 15.6% and the “Tmax” value was found to be 4.8 min. Besides, the “half-time T1/2” value in data set [4] was 1.19 h.
As for `C=CC(=O)N1CCCC(Nc2nc(Nc3ccc(N4CCN(C5COC5)CC4C)cc3)c3c(c2F)CNC3=O)C1` (stereo not shown) [Compound G-34], 5 nM corresponded to half-maximal inhibition in data set [1] (IC50). In data set [3], the IC50 worked out at 3.17 µM. In addition, in data set [4], the “Area under curve AUC” value was 1869 ng·h/mL, the “Maximum blood concentration Cmax” value was determined as 1990.0 ng/mL, the “Oral relative bioavailability F (%)” value is 28.6% and the “Tmax” value stood at 4.8 min. Moreover, in data set [4], the “half-time T1/2” value worked out at 1.44 h.
Consider `C=CC(=O)N1CCCC(Nc2nc(Nc3cnn(C)n3)c3c(c2F)CNC3=O)C1` (stereo not shown) [Compound G-35], for which, in data set [2], half-maximal inhibition (IC50) was put at 35 nM.
On to `C=CC(=O)N1CC(Nc2nc(Nc3ccc(N4CCOCC4)c(F)c3)c3c(c2F)CNC3=O)CCC1C` (stereo not shown) [Compound G-41], for which the values for the IC50 in data set [1] and in data set [2] were 2 nM and 3 nM, respectively.
Turning to `C=CC(=O)N1CCCC(Nc2nc(Nc3ccc(N4CCOCC4C)c(F)c3)c3c(c2F)CNC3=O)C1` (stereo not shown) [Compound G-42], half-maximal inhibition in data set [1] (IC50) required 5 nM. The IC50 in data set [3] was found to be 5.19 µM. In data set [4], the “Area under curve AUC” value amounted to 1266 ng·h/mL, the “Maximum blood concentration Cmax” value was found to be 945.0 ng/mL, the “Oral relative bioavailability F (%)” value came to 12.3% and the “Tmax” value was found to be 15 min. Besides, in data set [4], the “half-time T1/2” value is 1.73 h.
For `C=CC(=O)N1CCCC(Nc2nc(-c3cnn(C4CC4)c3)c3c(c2F)CNC3=O)C1` (stereo not shown) [Compound G-45], the results for the IC50 in data set [1] and in data set [2] were 69 nM and 109 nM, respectively.
In data set [2], `C=CC(=O)N1CCCC(Nc2nc(-c3cnn(C(F)F)c3)c3c(c2F)CNC3=O)C1` (stereo not shown) [Compound G-48] had an IC50 of 62 nM.
In the case of `C=CC(=O)N1CCC2CN(c3nc(Nc4cnn(C)c4)c4c(c3F)CNC4=O)CC21` (stereo not shown) [Compound G-87], the IC50 in data set [1] is 1 nM; in data set [2], 4 nM.
`C=CC(=O)N1CCC[C@H](Nc2nc(-c3cnn(C)c3)c3c(c2F)CNC3=O)[C@@H]1C` [Compound G-109]: the IC50 in data set [1] came out at 62 nM; in data set [3] it was 6.82 µM.
`C=CC(=O)N1CCC[C@@H](Nc2nc(-c3cnn(C)c3)c3c(c2F)CNC3=O)C1` [Compound G-111] registered an IC50 in data set [1] of 69 nM. Also, the IC50 in data set [3] was over 10 µM. In data set [4] (male, ICR), the AUC amounted to 2180 ng·h/mL, the highest level (Cmax) was 3490 ng/mL, the Tmax stood at 4.8 min and the bioavailability came out at 79.7%. For the same compound, the half-life in data set [4] (male, ICR) is 356 min.
Turning to `C=CC(=O)N1CCC[C@H](N(C)c2nc(-c3cnn(C)c3)c3c(c2F)CNC3=O)C1` [Compound G-112], the IC50 in data set [1] is 18 nM; in data set [3] it was over 10 µM.
On to `C=CC(=O)N1CCC[C@@H](N(C)c2nc(-c3cnn(C)c3)c3c(c2F)CNC3=O)C1` [Compound G-113], for which the IC50 in data set [1] was found to be 5 nM; in data set [3], 6.17 µM.
In the case of `C=CC(=O)N1CCC[C@H](Nc2nc(Nc3ccc(N4CCOCC4)cc3)c3c(c2F)CNC3=O)C1` [Compound G-114], in data set [1], the concentration for half-maximal inhibition (IC50) was determined as 34 nM. Further, the IC50 in data set [3] is 4.13 µM. In addition, in data set [4] (male, ICR), the AUC turned out to be 1070 ng·h/mL, the maximum concentration (Cmax) stood at 1240 ng/mL, the Tmax came to 4.8 min and the bioavailability was found to be 13.7%. The compound also had a half-life in data set [4] (male, ICR) of 148 min.

One may read the IC50 as the concentration at which inhibition is half-maximal. What is called Tmax is the time from dosing to the highest level. As a reminder, the AUC is concentration integrated over time. Low values mean less exposure, high ones more exposure. By Cmax is commonly meant the highest concentration seen after dosing. What is called bioavailability is dose-corrected exposure relative to a reference, in per cent. A lower bioavailability goes with little systemic uptake. As a reminder, the half-life is how long it takes for the measured level to halve. A higher half-life goes with slow decline.
